{
  "source": "patent US4757080A",
  "about": "“1,4-dihydropyridine derivatives” (Heumann Pharma GmbH & Co., priority 1986, dated 1988)",
  "key": {"[1]": {"molecular_target": "T1, isolated guineapig's ileum (Cavia porcellus)", "T1 construct": "isolated guineapig's ileum; from tissue; host or cells: isolated guinea pig ileum", "T1 sequence (O35505 whole entry)": "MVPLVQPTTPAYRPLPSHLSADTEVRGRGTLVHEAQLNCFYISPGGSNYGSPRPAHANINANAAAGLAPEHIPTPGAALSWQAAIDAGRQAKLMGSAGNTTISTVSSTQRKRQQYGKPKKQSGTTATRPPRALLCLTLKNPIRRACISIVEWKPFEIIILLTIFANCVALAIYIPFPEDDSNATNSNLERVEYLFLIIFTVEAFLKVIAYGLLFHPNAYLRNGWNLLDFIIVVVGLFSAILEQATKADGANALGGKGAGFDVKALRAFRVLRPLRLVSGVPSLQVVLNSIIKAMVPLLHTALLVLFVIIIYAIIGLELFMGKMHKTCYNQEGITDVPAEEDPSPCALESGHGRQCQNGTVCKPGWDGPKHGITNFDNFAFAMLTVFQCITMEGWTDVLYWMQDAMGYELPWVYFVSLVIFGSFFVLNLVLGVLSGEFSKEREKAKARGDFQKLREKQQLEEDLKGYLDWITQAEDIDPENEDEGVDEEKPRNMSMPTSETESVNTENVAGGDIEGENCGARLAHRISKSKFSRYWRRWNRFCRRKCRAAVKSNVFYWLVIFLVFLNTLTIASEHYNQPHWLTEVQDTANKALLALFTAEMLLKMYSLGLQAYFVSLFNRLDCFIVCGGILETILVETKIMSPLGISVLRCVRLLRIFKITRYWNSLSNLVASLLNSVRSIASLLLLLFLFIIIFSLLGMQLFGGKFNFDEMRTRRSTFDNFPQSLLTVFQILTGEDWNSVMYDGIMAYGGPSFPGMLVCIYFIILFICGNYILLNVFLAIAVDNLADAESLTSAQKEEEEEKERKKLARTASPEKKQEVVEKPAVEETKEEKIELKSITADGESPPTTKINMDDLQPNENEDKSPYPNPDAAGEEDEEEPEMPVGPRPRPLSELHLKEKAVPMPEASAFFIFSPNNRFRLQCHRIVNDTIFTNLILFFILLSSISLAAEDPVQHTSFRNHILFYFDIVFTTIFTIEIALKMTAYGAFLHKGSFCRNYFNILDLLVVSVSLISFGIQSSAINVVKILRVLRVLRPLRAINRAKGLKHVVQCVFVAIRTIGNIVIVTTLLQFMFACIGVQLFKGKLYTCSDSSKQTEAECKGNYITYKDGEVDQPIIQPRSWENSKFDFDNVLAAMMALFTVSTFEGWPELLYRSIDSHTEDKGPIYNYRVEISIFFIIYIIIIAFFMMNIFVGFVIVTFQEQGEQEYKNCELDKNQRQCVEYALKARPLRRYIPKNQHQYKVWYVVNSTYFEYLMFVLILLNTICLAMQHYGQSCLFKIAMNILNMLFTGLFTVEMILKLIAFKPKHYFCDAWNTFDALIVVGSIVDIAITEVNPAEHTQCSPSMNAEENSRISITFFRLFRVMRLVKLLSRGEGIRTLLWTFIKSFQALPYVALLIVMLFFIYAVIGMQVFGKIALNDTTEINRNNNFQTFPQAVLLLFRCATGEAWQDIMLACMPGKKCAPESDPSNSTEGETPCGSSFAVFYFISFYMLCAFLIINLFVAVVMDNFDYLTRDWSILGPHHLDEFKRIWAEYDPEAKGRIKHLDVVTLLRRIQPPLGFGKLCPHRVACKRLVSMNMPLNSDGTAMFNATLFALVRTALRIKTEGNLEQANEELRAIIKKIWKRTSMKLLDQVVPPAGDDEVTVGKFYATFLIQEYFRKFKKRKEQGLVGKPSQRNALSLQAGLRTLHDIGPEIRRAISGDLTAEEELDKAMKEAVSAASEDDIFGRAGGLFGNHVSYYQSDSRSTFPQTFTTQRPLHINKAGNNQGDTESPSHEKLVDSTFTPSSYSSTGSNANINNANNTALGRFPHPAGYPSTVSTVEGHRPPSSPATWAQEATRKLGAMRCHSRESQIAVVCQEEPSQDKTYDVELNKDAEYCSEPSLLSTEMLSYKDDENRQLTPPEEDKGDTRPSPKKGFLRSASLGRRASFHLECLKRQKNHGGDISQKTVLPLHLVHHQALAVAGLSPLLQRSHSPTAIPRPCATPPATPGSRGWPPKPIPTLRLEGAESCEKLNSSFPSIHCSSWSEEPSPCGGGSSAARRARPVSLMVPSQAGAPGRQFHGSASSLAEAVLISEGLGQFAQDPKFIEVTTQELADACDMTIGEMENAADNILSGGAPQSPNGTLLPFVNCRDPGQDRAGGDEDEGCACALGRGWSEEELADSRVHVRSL", "test": "calcium antagonistic activity on isolated guineapig's ileum stimulated with barium chloride", "conditions": "read-out: pA2-value (BaCl2) (converted)"}, "H2-receptor": {"molecular_target": "T2, H2-receptor (Cavia porcellus, UniProt P47747)", "T2 construct": "Technique for the making of dose-response curves in isolated organs; from tissue", "T2 sequence (P47747 whole entry)": "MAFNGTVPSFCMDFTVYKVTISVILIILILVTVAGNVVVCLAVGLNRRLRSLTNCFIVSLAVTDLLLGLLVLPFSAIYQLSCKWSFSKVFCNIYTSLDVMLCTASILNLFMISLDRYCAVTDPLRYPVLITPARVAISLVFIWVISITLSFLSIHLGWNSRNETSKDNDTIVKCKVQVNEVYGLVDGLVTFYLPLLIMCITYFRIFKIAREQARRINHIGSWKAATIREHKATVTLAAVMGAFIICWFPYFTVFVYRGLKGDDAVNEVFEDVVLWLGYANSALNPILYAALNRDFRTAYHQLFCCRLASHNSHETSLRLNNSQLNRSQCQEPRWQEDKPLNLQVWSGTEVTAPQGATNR", "test": "H2 agonistic activity (pD2-values), method of J. M. van Rossum, cumulative dose-response curves in isolated organs", "from_the_text": "Technique for the making of dose-response curves in isolated organs and the evaluation of drug parameters, Arch. Intern. Pharmacodyn. Therap."}, "[2]": {"tested_on": "arterial resistance, coronary dilatation, activity of the heart", "conditions": "in words, background, cited from earlier work"}},
  "data": [
    {"smiles": "COC(=O)C1=C(C)NC(C)=C(C(=O)OCCCCCCNC(=N)NCCCc2c[nH]cn2)C1c1cccc([N+](=O)[O-])c1", "note": "(stereo not shown) [Example 7, N^1-[6[1,4-dihydro-2,6-dimethyl-3-methoxycarbonyl-4-(3-nitrophenyl)-pyridine-5-carboxy]hexyl]-N^2 [3-(1H-imidazol-4-yl)propyl]-guanidine hydriodide]", "values": [
      {"measurement": "Kb", "setting": "[1]", "value": 110, "unit": "nM"},
      {"measurement": "EC50", "setting": "H2-receptor", "value": 38.9, "unit": "nM"}
    ]},
    {"smiles": "COC(=O)C1=C(C)NC(C)=C(C(=O)OCCNC(=N)NCCCc2c[nH]cn2)C1c1cccc(Cl)c1Cl", "note": "(stereo not shown) [Example 8, N^1-[2-[1,4-Dihydro-2,6-dimethyl-3-methoxycarbonyl-4-(2,3-dichlorophenyl)-pyridine-5-carboxy]ethyl]-N^2-[3-(1H-imidazol-4-yl)propyl]-guanidine hydriodide]", "values": [
      {"measurement": "Kb", "setting": "[1]", "value": 30.2, "unit": "nM"},
      {"measurement": "EC50", "setting": "H2-receptor", "value": 331, "unit": "nM"}
    ]},
    {"smiles": "COC(=O)C1=C(C)NC(C)=C(C(=O)OC)C1c1ccccc1[N+](=O)[O-]", "note": "[Nifedipine, 1,4-dihydro-2,6-dimethyl-4-(2-nitrophenyl)-3,5-pyridine carboxylic acid dimethyl ester]", "values": [
      {"measurement": "arterial resistance", "setting": "[2]", "value": "lowers the arterial resistance"},
      {"measurement": "coronary dilatory effect", "setting": "[2]", "value": "very marked coronary dilatory effect"},
      {"measurement": "inhibition of the activity of the heart", "setting": "[2]; therapeutic doses", "value": "without inhibiting the activity of the heart"}
    ]},
    {"smiles": "COC(=O)C1=C(C)NC(C)=C(C(=O)OCCNC(=N)NCCCc2c[nH]cn2)C1c1ccccc1[N+](=O)[O-]", "note": "(stereo not shown) [Example 1, N^1-[2-[1,4-Dihydro-2,6-dimethyl-3-methoxycarbonyl-4-(2-nitrophenyl)-pyridine-5-carboxy]ethyl]-N^2-[3-(1H-imidazol-4-yl)propyl]-guanidine-hydriodide]", "values": [
      {"measurement": "Kb", "setting": "[1]", "value": 38, "unit": "nM"},
      {"measurement": "EC50", "setting": "H2-receptor", "value": 47.9, "unit": "nM"}
    ]},
    {"smiles": "Cc1[nH]cnc1CSCCNC(=N)NCCCc1c[nH]cn1", "note": "[Impromidine, reference compound]", "values": [
      {"measurement": "EC50", "setting": "H2-receptor", "value": 21.4, "unit": "nM"}
    ]}
  ]
}
